Values quoted from earlier work, collected in patent US6306425A, “Injectable naltrexone microsphere compositions and their use in reducing consumption of heroin and alcohol” (Southern Research Institute, priority 2000, dated 2001).

SMILES: O=C1CC[C@@]2(O)[C@H]3Cc4ccc(O)c5c4[C@@]2(CCN3CC2CC2)[C@H]1O5 [naltrexone]
- Safety (administered levels in excess of those of the subject compositions): found to be safe
- Hepatotoxicity (high dosages): some reports of hepatotoxicity
- Population with adverse reactions (oral naltrexone): about 10%
- Control of amount of alcohol consumed and number of binges (alcoholics): serves to enhance the control of the alcoholic in the amount of alcohol consumed and the number of binges
